The source of these data is patent US10081609B2, “Compounds for inducing proliferation and differentiation of cells, and methods of use thereof” (The Broad Institute, Inc., priority 2013, dated 2018).

Series [1] has as its system human primary hepatocytes. In words: High-throughput liver platform, primary screening: hepatocyte proliferation by automated high-content imaging (hepatocyte nuclei numbers). The series is classed as cell-based. The conditions noted are these: primary screening. On the procedure:
In order to avoid species-specific differences and cell line mutations, the screen was conducted with human primary hepatocytes. Traditionally, chemical screening on such cells has been hindered by their availability in large quantities as well as their rapid loss of viability and phenotype in vitro. Recent advances in cryopreservation technologies allowed enough primary human cells to be stored for screening; these cells are maintained through co-cultivation with non-parenchymal cells. Co-cultures of primary human hepatocytes with murine embryonic J2-3T3 fibroblasts were recently shown to maintain normal hepatocyte phenotype for weeks. These in vitro platforms consisted of hepatocytes surrounded by a co-planar population of fibroblasts. While sufficient for stabilizing hepatocyte functions in vitro, such platforms may limit normal hepatocyte expansion due to contact inhibition. Thus, for this screen, a sparse population of hepatocytes was co-cultivated on top of a confluent feeder layer of J2-3T3 fibroblasts within 384-well plates (FIG. 1A top). This screening platform stabilized hepatocyte phenotypic functions in vitro (FIG. 1A bottom) and was compatible with two separate high-throughput readouts developed for this screen.
The primary readout detected hepatocyte proliferation via automated high-content imaging. This assay quantified hepatocyte nuclei numbers, using nuclear morphologies to separate the hepatocyte and fibroblast subpopulations that co-exist within the screening platform. When visualized with Hoechst stain, hepatocyte nuclei were smaller and more uniform in texture while fibroblast nuclei were larger and punctated (FIG. 1A bottom). Leveraging this distinction, automated image analyses was developed that utilized machine learning algorithms to classify nuclei types and tabulate hepatocyte nuclei numbers. […] Besides quantifying hepatocyte nuclei that have completed mitosis, the number of nuclei in the process of mitosis were also quantified. Two additional analysis pipelines were built to detect nuclear morphologies consistent with cells undergoing metaphase and anaphase.
FIG. 1B top summarizes the workflow of the screen. Primary screening was done on human primary hepatocytes, preconditioned for seven days by non-parenchymal cells in the screening platform. Upon stabilization in vitro, cultures were treated with the chemical library for 48 hours. All compounds were tested in duplicates, at a single concentration of 15 μM. This single concentration was selected via a pilot screen of ˜2,000 small molecules. All 12,480 small molecules were initially tested on a single donor of cryopreserved hepatocytes (donor a) in order to eliminate noise from donor-to-donor variability. Following compound treatment, media supernatants were collected for functional analyses via ELISA and cultures were fixed in 4% paraformaldehyde for proliferation analyses via imaging.
To identify proliferation hits, three image-based readouts—one each to quantify the number of (1) hepatocyte nuclei in interphase, (2) nuclei in metaphase and (3) nuclei in anaphase—were integrated. z Scores were converted into p values, which were then used to generate ranked lists of compounds based on the efficacy and consistency of effects across the different proliferation readouts. Efficacy was assessed by the product of p values (pprod=pinter×pmeta×pana); consistency was evaluated by the maximum of p values (pmax=max(pinter, pmeta, pana). Compounds were considered proliferation hits if pprod<1×10^−6 and pmax<0.25. Functional hits were selected by an ELISA […]. Compounds with ELISA z>3.0 were eliminated as toxic. 93 compounds met all hit selection criteria, qualifying as Functional Proliferation Hits (FPH); FIG. 1B bottom illustrates the types of compounds that constituted this set of hits.

The test system of series [2] is human primary hepatocytes. Nature of the series: Expansion of human primary hepatocytes on growth-arrested J2-3T3 feeder layer in 12-well plates (imaging, cell counting, FACS, biochemical assays). Type of series: cell-based. As for the experimental part:
Culture media were collected and frozen at −20° C. until analysis. Albumin content was measured through sandwich ELISA assays (MP Biomedicals, Fitzgerald, Bethyl Laboratories) using horseradish peroxidase detection and 3,3′,5,5′-tetramethylbenzidine (TMB, Fitzgerald Industries) as a substrate. Urea concentration was determined colorimetrically using diacetylmonoxime with acid and heat (Stanbio Labs). To quantify CYP450 activity, at 48 hours after small molecule exposure, cultures were incubated with substrates (coumarin from Sigma for CYP2A6, luciferin-IPA from Promega for CYP3A4) for 4 hours at 37° C. Incubation medium was collected and metabolite concentration quantified via luminescence, or fluorescence after hydrolization of potential metabolite conjugates by β-glucuronidase/arylsulfatase (Roche, Ind.).
To characterize the effects of FPH1 and FPH2 outside of the screening platform, human primary hepatocytes were seeded at a density of ˜20,000 cells/cm^2, into standard 12-well tissue culture plates on top of a feeder layer of growth-arrested J2-3T3s. These cells were cultured for 7 days, during which time a single compound/FPH was supplemented into the media on days 1 and 5 at a concentration of 20 μM. Treated hepatocyte colonies increased in size over time, with more hepatocytes populating each colony (FIG. 2D, 2E).
To characterize the degree of proliferation and to obtain a doubling time, cells were counted and fluorescence-activated cell sorting (FACS) was performed (FIG. 2H). For cell counting, FPH-treated cells were trypsinized after seven days in culture. The number of cells was quantified using an automated cell counter. The number of hepatocytes was obtained by subtracting the number of fibroblasts from the total number of cells found in the corresponding co-culture. For FACS analysis, growth arrested J2-3T3s were labeled with CM-DiI prior to initiation of co-culture so that hepatocytes can be identified via negative selection. To enable cell counting during FACS, each sample was supplemented with fluorescent counting beads. […] Over 7 days, FPH1 induced hepatocyte doublings at a rate that is consistent with reported liver regeneration kinetics in vivo.
To assess the phenotype of the treated hepatocytes, imaging, biochemical analyses and gene expression profiling were performed. […] Albumin secretion and urea synthesis, a surrogate marker of nitrogen metabolism, were both stable throughout FPH treatment (FIG. 3A top and middle). Metabolic functions were assessed via examinations of cytochrome P450 (CYP450) activity and canalicular transport. […] Gene expression profiling confirmed that there are no significant differences between FPH-treated and untreated hepatocytes (FIG. 3C).

The test system of series [3] is primary human hepatocytes. In words: Expansion of primary human hepatocytes from six additional cell sources (Ki67/albumin staining, FACS). The series is classed as cell-based. On the procedure: On day seven, the number of hepatocytes was quantified by FACS analysis (FIG. 6B). Day one untreated controls was added to the bar graph for reference.
The target in the next series is CK1 γ2 (Homo sapiens, UniProt P78368). Nature of the series: Kinome analysis (panel of kinases). The series is classed as biochemical. As for the experimental part: (§1) Selected compounds of the invention (FPH1 and FPH2; both at 1 μM concentration) were screened against a panel of kinases (FIG. 17).
The target in the next series is EphB4 (Homo sapiens, UniProt P54760). In words: Kinome analysis (panel of kinases). Type of series: biochemical. On the procedure:
as §1

A further series concerns the target FMS (Homo sapiens, UniProt P07333). In words: Kinome analysis (panel of kinases). Type of series: biochemical. On the procedure:
as §1

A further series deals with GRK1 (Homo sapiens, UniProt Q15835). In words: Kinome analysis (panel of kinases). Type of series: biochemical. As for the experimental part: as §1
In the next series the target is IGF-1R (Homo sapiens, UniProt P08069). Nature of the series: Kinome analysis (panel of kinases). The series is classed as biochemical. On the procedure:
as §1

Another series deals with KDR (Homo sapiens, UniProt P35968). Nature of the series: Kinome analysis (panel of kinases). Type of series: biochemical. As for the experimental part: as §1
The target in a further series is MAPKAP-KII (Homo sapiens, UniProt P49137). In words: Kinome analysis (panel of kinases). Type of series: biochemical. On the procedure:
as §1

For a further series, the target named is MAPKAPKV (PRAK) (Homo sapiens, UniProt Q8IW41). Nature of the series: Kinome analysis (panel of kinases). The series is classed as biochemical. The conditions noted are these: read-out: MAPKAPKV (PRAK) inhibition. On the procedure: as §1
The target in the next series is MSSK1 (Homo sapiens, UniProt Q9UPE1). Nature of the series: Kinome analysis (panel of kinases). The series is classed as biochemical. On the procedure: as §1
A further series concerns the target PAK5 (Homo sapiens, UniProt Q9P286). Nature of the series: Kinome analysis (panel of kinases). Type of series: biochemical. As for the experimental part: as §1
The subject of another series is PI3KCγ. Nature of the series: Kinome analysis (panel of kinases). The series is classed as biochemical. To be noted: 1 μM. As for the experimental part:
as §1

A further series deals with Pim1 (Homo sapiens, UniProt P11309). In words: Kinome analysis (panel of kinases). The series is classed as biochemical. As for the experimental part:
as §1

The target in the next series is SAPK4 (Homo sapiens, UniProt O15264). Nature of the series: Kinome analysis (panel of kinases). The series is classed as biochemical. On the procedure: as §1
Another series has as its target eEF-2K (Homo sapiens, UniProt O00418). Nature of the series: Kinome analysis (panel of kinases). Type of series: biochemical. As for the experimental part: as §1

Chain of IGF-1R (P08069 31-1367, species assumed): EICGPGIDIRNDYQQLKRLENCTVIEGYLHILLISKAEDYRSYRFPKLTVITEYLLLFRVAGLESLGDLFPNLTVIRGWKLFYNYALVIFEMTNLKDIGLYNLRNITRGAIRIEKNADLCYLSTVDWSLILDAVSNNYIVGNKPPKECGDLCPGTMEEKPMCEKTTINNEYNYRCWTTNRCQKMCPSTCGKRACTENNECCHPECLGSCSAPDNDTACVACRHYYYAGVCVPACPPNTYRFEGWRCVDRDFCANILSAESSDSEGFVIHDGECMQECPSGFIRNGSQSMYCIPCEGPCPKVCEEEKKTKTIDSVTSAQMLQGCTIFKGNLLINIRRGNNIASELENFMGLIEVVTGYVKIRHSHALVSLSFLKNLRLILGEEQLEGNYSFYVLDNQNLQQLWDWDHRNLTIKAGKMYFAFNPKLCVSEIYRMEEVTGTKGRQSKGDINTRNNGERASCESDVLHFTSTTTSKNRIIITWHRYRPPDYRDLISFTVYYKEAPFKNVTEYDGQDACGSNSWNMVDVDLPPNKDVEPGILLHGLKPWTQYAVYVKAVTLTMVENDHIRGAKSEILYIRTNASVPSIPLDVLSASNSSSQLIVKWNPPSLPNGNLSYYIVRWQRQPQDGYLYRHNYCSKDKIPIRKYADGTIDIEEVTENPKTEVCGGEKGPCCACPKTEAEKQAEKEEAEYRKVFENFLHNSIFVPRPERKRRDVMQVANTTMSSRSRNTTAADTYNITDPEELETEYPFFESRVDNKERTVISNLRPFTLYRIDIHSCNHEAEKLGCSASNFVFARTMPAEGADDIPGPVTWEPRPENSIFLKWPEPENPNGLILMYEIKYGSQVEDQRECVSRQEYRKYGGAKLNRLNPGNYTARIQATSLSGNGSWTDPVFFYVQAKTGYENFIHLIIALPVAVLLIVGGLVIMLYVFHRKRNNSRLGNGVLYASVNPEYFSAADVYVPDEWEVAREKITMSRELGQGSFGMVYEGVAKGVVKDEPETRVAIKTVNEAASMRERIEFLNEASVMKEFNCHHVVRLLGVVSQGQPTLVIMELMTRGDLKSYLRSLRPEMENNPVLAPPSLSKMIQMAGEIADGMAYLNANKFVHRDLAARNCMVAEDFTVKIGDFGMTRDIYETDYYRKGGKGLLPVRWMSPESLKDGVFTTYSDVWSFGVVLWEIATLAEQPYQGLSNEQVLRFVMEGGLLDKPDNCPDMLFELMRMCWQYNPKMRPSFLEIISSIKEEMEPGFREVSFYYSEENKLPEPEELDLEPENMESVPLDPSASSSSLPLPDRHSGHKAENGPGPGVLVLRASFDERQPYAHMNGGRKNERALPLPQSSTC
Chain of FMS (P07333 20-972, species assumed): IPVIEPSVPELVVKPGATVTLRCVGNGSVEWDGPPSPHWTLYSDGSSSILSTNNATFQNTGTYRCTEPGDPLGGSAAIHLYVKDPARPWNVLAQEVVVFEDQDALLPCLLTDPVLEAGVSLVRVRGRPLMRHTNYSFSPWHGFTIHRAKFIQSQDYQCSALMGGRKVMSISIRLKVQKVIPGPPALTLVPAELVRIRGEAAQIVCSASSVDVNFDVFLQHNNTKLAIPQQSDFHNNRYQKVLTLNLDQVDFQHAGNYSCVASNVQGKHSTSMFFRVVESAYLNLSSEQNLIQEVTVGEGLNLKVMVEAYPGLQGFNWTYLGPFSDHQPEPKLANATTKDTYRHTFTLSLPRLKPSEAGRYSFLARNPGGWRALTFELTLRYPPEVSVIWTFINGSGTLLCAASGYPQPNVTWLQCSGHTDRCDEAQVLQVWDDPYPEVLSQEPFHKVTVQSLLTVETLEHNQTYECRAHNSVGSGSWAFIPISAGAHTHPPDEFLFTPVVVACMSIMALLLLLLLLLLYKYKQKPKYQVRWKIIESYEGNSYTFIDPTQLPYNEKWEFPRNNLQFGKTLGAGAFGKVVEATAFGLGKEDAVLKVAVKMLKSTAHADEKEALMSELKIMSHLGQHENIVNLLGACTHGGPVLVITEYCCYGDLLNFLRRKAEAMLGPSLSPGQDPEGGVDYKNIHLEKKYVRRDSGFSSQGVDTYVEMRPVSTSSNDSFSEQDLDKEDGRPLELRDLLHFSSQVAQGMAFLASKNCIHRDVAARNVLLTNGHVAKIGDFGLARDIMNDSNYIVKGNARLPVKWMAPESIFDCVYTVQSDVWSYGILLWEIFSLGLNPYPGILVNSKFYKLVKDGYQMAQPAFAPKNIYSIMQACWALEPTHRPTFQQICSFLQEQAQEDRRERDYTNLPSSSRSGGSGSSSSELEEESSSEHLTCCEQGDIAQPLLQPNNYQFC
Chain of MAPKAP-KII (P49137 whole entry): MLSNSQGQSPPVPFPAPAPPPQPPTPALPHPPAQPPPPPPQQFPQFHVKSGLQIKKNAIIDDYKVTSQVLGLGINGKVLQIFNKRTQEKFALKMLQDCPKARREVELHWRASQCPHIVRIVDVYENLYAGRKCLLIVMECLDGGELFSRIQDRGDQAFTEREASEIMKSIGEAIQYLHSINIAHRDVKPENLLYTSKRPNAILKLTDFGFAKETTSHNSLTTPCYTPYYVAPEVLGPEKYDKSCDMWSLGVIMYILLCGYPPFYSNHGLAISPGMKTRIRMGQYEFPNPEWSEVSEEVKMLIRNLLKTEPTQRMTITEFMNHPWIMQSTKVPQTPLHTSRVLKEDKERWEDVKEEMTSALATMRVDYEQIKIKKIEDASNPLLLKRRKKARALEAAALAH
Chain of SAPK4 (O15264 whole entry, species assumed): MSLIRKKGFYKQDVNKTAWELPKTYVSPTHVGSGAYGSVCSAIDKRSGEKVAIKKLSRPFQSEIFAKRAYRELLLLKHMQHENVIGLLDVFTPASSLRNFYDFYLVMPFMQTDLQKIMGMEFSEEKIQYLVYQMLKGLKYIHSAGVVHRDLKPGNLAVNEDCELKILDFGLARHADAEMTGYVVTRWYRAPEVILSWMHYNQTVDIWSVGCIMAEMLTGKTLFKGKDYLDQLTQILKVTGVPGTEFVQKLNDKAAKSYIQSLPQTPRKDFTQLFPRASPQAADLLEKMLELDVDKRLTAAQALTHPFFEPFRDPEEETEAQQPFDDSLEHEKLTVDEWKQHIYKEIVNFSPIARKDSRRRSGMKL
Chain of EphB4 (P54760 16-987, species assumed): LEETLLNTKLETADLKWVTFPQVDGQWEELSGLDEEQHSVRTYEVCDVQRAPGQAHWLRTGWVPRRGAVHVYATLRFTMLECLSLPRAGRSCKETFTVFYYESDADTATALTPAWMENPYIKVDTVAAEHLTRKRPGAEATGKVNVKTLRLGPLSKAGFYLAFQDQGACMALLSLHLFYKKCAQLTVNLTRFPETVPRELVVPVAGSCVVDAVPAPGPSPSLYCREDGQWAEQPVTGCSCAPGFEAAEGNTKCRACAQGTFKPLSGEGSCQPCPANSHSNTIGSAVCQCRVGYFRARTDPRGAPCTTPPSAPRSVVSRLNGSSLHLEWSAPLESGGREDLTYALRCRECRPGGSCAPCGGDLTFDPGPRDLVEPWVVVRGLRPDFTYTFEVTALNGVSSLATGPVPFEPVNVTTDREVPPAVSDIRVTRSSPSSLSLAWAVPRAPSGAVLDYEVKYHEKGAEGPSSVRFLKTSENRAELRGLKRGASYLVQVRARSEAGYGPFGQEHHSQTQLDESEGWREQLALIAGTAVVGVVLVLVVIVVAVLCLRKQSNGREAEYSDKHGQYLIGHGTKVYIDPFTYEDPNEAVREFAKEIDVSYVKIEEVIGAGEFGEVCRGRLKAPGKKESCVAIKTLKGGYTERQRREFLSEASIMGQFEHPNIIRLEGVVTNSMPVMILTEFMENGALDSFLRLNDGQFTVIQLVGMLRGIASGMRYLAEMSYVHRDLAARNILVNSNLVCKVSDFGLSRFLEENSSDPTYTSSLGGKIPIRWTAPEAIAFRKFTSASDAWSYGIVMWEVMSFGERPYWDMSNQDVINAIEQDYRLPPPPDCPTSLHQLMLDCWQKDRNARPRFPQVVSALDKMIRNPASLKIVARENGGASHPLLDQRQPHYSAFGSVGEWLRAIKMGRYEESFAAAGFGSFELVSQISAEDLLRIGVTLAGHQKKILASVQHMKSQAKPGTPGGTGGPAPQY
Chain of CK1 γ2 (P78368 whole entry): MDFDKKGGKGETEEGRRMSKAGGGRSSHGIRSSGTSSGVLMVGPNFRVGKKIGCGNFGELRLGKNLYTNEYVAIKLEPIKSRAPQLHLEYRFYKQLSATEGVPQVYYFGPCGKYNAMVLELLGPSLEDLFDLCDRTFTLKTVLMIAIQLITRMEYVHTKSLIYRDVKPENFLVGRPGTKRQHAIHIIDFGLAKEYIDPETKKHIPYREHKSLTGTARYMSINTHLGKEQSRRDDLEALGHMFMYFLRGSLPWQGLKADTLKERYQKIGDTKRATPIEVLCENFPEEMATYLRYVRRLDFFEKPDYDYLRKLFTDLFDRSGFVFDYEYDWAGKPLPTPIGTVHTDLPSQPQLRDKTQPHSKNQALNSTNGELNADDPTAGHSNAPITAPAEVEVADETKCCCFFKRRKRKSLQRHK
Chain of GRK1 (Q15835 whole entry, species assumed): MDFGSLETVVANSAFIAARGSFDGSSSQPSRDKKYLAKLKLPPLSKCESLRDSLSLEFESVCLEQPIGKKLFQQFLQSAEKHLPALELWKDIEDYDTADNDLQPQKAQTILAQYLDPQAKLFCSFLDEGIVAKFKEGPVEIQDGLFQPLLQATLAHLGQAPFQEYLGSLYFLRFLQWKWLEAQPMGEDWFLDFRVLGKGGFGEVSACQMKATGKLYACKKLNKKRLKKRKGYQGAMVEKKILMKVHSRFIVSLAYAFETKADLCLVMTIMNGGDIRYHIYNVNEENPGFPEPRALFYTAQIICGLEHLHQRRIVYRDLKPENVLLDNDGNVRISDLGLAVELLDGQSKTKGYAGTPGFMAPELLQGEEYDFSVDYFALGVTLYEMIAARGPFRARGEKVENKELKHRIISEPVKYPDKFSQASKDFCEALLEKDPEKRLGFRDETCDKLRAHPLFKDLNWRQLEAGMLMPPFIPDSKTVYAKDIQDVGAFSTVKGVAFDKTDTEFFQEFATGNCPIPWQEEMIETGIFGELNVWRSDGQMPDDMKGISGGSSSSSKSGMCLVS

The term inhibition denotes the share of the control response that was lost under treatment. Broadly, the remaining activity is what remains of the control signal, in per cent. A high value points to a small loss of activity. As for `CCn1cc(NC(=S)Nc2cc(Cl)ccc2OC)c(C(N)=O)n1` [FPH1, 4-(3-(5-chloro-2-methoxyphenyl)thioureido)-1-ethyl-1H-pyrazole-3-carboxamide], the “number of nuclei undergoing mitosis” value in series [1] was “elevated”. The “increase in hepatocyte nuclei numbers during primary screening” value in [1] (15 μM, 48 hours) is 1.5 ×. In addition, the “increase in the area of albumin-positive colonies” value in series [2] (20 μM on days 1 and 5, 7 days culture) is given as “up to 6.6 fold”. Besides, the “degree of proliferation (cell counting, FACS)” value in series [2] (7 days) was “strongest proliferation inducer”. Moreover, the “number of hepatocytes by FACS” value in series [3] (day seven, all donors) is on record as “increase”. In addition, the “Ki67 staining co-localized with albumin labeled hepatocytes” value in [3] (six additional cell sources, six days in culture) was “increased”. For the same compound, the inhibition at 1 µM is 6.7 to 18.4% at CK1 γ2; 6.7 to 18.4% against EphB4; 23% at FMS; 6.7 to 18.4% on GRK1; 21% against IGF-1R; 6.7 to 18.4% against KDR. For the same compound, the inhibition at 1 µM on MAPKAP-KII, on MAPKAPKV (PRAK), against MSSK1, against PAK5, at Pim1 and against SAPK4 was 6.7 to 18.4% in each case. Moreover, on eEF-2K, the inhibition at 1 µM is 6.7 to 18.4%. Also, the remaining activity at 1 µM on FMS is 77%; on IGF-1R, 79%. Further, the PI3KCγ inhibition in the series with PI3KCγ was 6.7-18.4%.
